For the assay, the target named is CDK2/CCNE1 (Homo sapiens, UniProt P24941). The experiment in a line: CDK2 homogeneous time-resolved fluorescence (HTRF) assay. It counts as biochemical. The following applies: 3 nM CDK2/CCNE1, 1 mM ATP, 50 nM ULight-eIF4E-binding protein 1 (Thr37/46) peptide, 60 min at 23° C. How it is done:
A CDK homogeneous time-resolved fluorescence (HTRF) assay was used to assess the potency of the compounds described herein.
To an untreated 384-well microtiter plate (ProxiPlate) was added 100 nL 100× test compound in DMSO and 5 μL 2×CDK enzyme in assay buffer (50 mM HEPES, 1 mM EGTA, 10 mM MgCl2, 0.01% Tween 20, 2 mM DTT). The plate was centrifuged at 800 RPM for 1 min then incubated for 20 min at 23° C. 2.5 μL per well of 4×ATP and 2.5 μL 4×ULight™-eIF4E-binding protein 1 (Thr37/46) Peptide) substrate were added to all wells. After addition, the plates were centrifuged at 800 RPM for 1 min. The plates were incubated at 23° C. for 60 min. 5 μL per well 3×EDTA solution were added to each well to stop the reaction. 2.5 μL 7×LANCE Ultra Europium-anti-phospho-eTF4E-binding protein 1 (Thr37/46 antibody) were added to each well and the plate was centrifuged for 1 min at 800 RPM. The plate was incubated for 60 min at 23° C. Fluorescence was read at 340 nm excitation and 665 nm emission on an EnVision 2105 fluorescence reader. The final concentrations of reagents in the activity assay were 3 nM CDK2/CCNE1, 1 mM ATP, 50 nM ULight™-eIF4E-binding protein 1 (Thr37/46) Peptide substrate, 1% DMSO, 10 mM EDTA, and 2 nM LANCE Ultra Europium-anti-phospho-eTF4E-binding protein 1 (Thr37/46).
Dose-response titrations were conducted by using an 11-point, three-fold serial dilution scheme typically starting at 1 μM. Signals were reported as fluorescence units at 665 nm or the ratio of fluorescence units at 665 nm/fluorescence units at 615 nm. Signals are referred to below as “Lance signals”.
Using this assay, the IC50 values of example compounds were determined.

Where [1] appears, read: read-out: CDK2/CCNE IC50 <25 nM.
The mark [2] stands for this setting: read-out: CDK2/CCNE IC50 >150 nM.
[3] abbreviates: column 25-150 nM, read-out: CDK2/CCNE IC50 25-150 nM.

This note sets out measurements from US20260306496A1, “CDK2 INHIBITOR PYRAZOLOPYRIMIDINE COMPOUNDS” (ALEKSIA THERAPEUTICS, INC., priority 2023, published 2026).

Like-named read-outs stand apart in the source and are kept apart here.

As to `O=Cc1cccc(Nc2ncc3cnn(CC4CCCCC4)c3n2)c1` [Compound 26, 3-((1-(cyclohexylmethyl)-1H-pyrazolo[3,4-d]pyrimidin-6-yl)amino)benzaldehyde], under setting [1], the IC50 is less than 25 nM.
As for `Cc1nn(CC2CCCCC2)c2nc(Nc3ccc(S(C)(=O)=O)cc3)ncc12` [Compound 19, 1-(cyclohexylmethyl)-3-methyl-N-(4-(methylsulfonyl)phenyl)-1H-pyrazolo[3,4-d]pyrimidin-6-amine], the IC50 under setting [2] is more than 150 nM.
For `CS(=O)(=O)c1ccc(Nc2ncc3cnn(C[C@H]4CC[C@@H](CO)CC4)c3n2)cc1` [Compound 17], the IC50 under setting [3] fell in the range of 25 to 150 nM.
In the case of `C=CS(=O)(=O)c1ccc(Nc2ncc3cnn(CC4CCCCC4)c3n2)cc1C(F)(F)F` [Compound 42, 1-(cyclohexylmethyl)-N-(3-(trifluoromethyl)-4-(vinylsulfonyl)phenyl)-1H-pyrazolo[3,4-d]pyrimidin-6-amine], the IC50 under setting [3] was 25 to 150 nM.
For the compound `CS(=O)(=O)c1ccc(Nc2ncc3cnn(C[C@H]4CC[C@@H](CCl)CC4)c3n2)cc1` [Compound 49, 1-(((1S,4S)-4-(chloromethyl)cyclohexyl)methyl)-N-(4-(methylsulfonyl)phenyl)-1H-pyrazolo[3,4-d]pyrimidin-6-amine], the IC50 under setting [1] was less than 25 nM.
In the case of `CS(=O)(=O)c1ccc(Nc2ncc3cnn(CC4CCC(N5CC(O)C5)CC4)c3n2)cc1` (single isomer, unassigned; stereoisomer a) [Compound 64, 1-(4-((6-((4-(methylsulfonyl)phenyl)amino)-1H-pyrazolo[3,4-d]pyrimidin-1-yl)methyl)cyclohexyl)azetidin-3-ol (stereoisomer A)], the IC50 under setting [2] was more than 150 nM.
In the case of `CS(=O)(=O)c1ccc(Nc2ncc3cnn(C4CCC(C#N)CC4)c3n2)cc1` (single isomer, unassigned) [Compound 32, 4-(6-((4-(methylsulfonyl)phenyl)amino)-1H-pyrazolo[3,4-d]pyrimidin-1-yl)cyclohexane-1-carbonitrile], the IC50 under setting [1] was less than 25 nM.
On to `CS(=O)(=O)c1ccc(Nc2ncc3cnn(Cc4cccc5[nH]ccc45)c3n2)cc1` [Compound 29, 1-((1H-indol-4-yl)methyl)-N-(4-(methylsulfonyl)phenyl)-1H-pyrazolo[3,4-d]pyrimidin-6-amine], for which, under setting [3], the IC50 lay in the range of 25 to 150 nM.
For the compound `CS(=O)(=O)c1ccc(Nc2ncc3cnn(CC4CCC(N5CC[C@H](O)C5)CC4)c3n2)cc1` (single isomer, unassigned; stereoisomer a) [Compound 74], the IC50 under setting [2] was more than 150 nM.
As to `CS(=O)(=O)c1ccc(Nc2ncc3cnn(Cc4ccccc4)c3n2)cc1` [Compound 4, 1-benzyl-N-(4-(methylsulfonyl)phenyl)-1H-pyrazolo[3,4-d]pyrimidin-6-amine], under setting [2], the IC50 was more than 150 nM.
On to `CS(=O)(=O)c1ccc(Nc2ncc3cnn(-c4ccc5cn[nH]c5c4)c3n2)cc1` [Compound 76, 1-(1H-indazol-6-yl)-N-(4-(methylsulfonyl)phenyl)-1H-pyrazolo[3,4-d]pyrimidin-6-amine], for which, under setting [3], the IC50 is 25 to 150 nM.
With `OCc1cccc(Nc2ncc3cnn(CC4CCCCC4)c3n2)c1` [Compound 20, (3-((1-(cyclohexylmethyl)-1H-pyrazolo[3,4-d]pyrimidin-6-yl)amino)phenyl)methanol], the IC50 under setting [1] is less than 25 nM.
Take `CS(=O)(=O)c1ccc(Nc2ncc3cnn(C[C@H]4CC[C@H](CO)CC4)c3n2)cc1` [Compound 11, ((1r,4r)-4-((6-((4-(methylsulfonyl)phenyl)amino)-1H-pyrazolo[3,4-d]pyrimidin-1-yl)methyl)cyclohexyl)methanol]: the IC50 under setting [3] was in the range of 25 to 150 nM.
Same read-out and setting: the same measure for `C=CS(=O)(=O)c1ccc(Nc2ncc3cnn(CC4CCCCC4)c3n2)cc1C` [Compound 23, 1-(cyclohexylmethyl)-N-(3-methyl-4-(vinylsulfonyl)phenyl)-1H-pyrazolo[3,4-d]pyrimidin-6-amine]: 25 to 150 nM; for `CS(=O)(=O)c1ccc(Nc2ncc3cnn(CC4CCCCC4)c3n2)cc1` [Compound 12, 1-(cyclohexylmethyl)-N-(4-(methylsulfonyl)phenyl)-1H-pyrazolo[3,4-d]pyrimidin-6-amine]: 25 to 150 nM.
As to `CC(c1cccnn1)n1ncc2cnc(Nc3ccc(S(C)(=O)=O)cc3)nc21` (single isomer, unassigned) [Compound 77, N-(4-(methylsulfonyl)phenyl)-1-(1-(pyridazin-3-yl)ethyl)-1H-pyrazolo[3,4-d]pyrimidin-6-amine], the IC50 under setting [2] was more than 150 nM.
As for `CS(=O)(=O)c1ccc(Nc2ncc3cnn(C[C@H]4CC[C@@H](N)CC4)c3n2)cc1` [Compound 6, 1-(((1S,4S)-4-aminocyclohexyl)methyl)-N-(4-(methylsulfonyl)phenyl)-1H-pyrazolo[3,4-d]pyrimidin-6-amine], the IC50 under setting [3] lay in the range of 25 to 150 nM.
Consider `CS(=O)(=O)c1ccc(Nc2ncc3cnn([C@H]4CC[C@H](O)CC4)c3n2)cc1` (single isomer, unassigned) [Compound 54], for which the IC50 under setting [3] lay within 25 to 150 nM.
`CS(=O)(=O)c1ccc(Nc2ncc3cnn(CC4CCC(N5CC[C@H](C#N)C5)CC4)c3n2)cc1` (single isomer, unassigned; stereoisomer a) [Compound 69]: the IC50 under setting [2] was more than 150 nM.
In the case of `CS(=O)(=O)c1ccc(Nc2ncc3cnn(CC4CCCC4)c3n2)cc1` [Compound 13, 1-(cyclopentylmethyl)-N-(4-(methylsulfonyl)phenyl)-1H-pyrazolo[3,4-d]pyrimidin-6-amine], the IC50 under setting [3] was 25 to 150 nM.
For `CS(=O)(=O)c1ccc(Nc2ncc3cnn([C@@H]4CCC[C@H](C#N)C4)c3n2)cc1` [Compound 52, (1S,3R)-3-(6-((4-(methylsulfonyl)phenyl)amino)-1H-pyrazolo[3,4-d]pyrimidin-1-yl)cyclohexane-1-carbonitrile], the IC50 under setting [3] lay within 25 to 150 nM.
On to `CS(=O)(=O)c1ccc(Nc2ncc3cnn(C4CC(=O)C4)c3n2)cc1` [Compound 39, 3-(6-((4-(methylsulfonyl)phenyl)amino)-1H-pyrazolo[3,4-d]pyrimidin-1-yl)cyclobutan-1-one], for which the IC50 under setting [2] is more than 150 nM.
As to `CS(=O)(=O)c1ccc(Nc2ncc3cnn(C4CCC(=O)CC4)c3n2)cc1` [Compound 53, 4-(6-((4-(methylsulfonyl)phenyl)amino)-1H-pyrazolo[3,4-d]pyrimidin-1-yl)cyclohexan-1-one], the IC50 under setting [3] lay in the range of 25 to 150 nM.
Consider `CN(CCO)[C@H]1CC[C@H](Cn2ncc3cnc(Nc4ccc(S(C)(=O)=O)cc4)nc32)CC1` [Compound 84, 2-(methyl((1r,4r)-4-((6-((4-(methylsulfonyl)phenyl)amino)-1H-pyrazolo[3,4-d]pyrimidin-1-yl)methyl)cyclohexyl)amino)ethan-1-ol], for which, under setting [2], the IC50 was more than 150 nM.
As for `CS(=O)(=O)c1ccc(Nc2ncc3cnn(CC4CCC(N5CCC5)CC4)c3n2)cc1` (single isomer, unassigned; stereoisomer a) [Compound 60, 1-((4-(azetidin-1-yl)cyclohexyl)methyl)-N-(4-(methylsulfonyl)phenyl)-1H-pyrazolo[3,4-d]pyrimidin-6-amine (stereoisomer A)], the IC50 under setting [2] is more than 150 nM.
On to `C=CS(=O)(=O)N1CCC(Nc2ncc3cnn(CC4CCCCC4)c3n2)CC1` [Compound 1, 1-(cyclohexylmethyl)-N-(1-(vinylsulfonyl)piperidin-4-yl)-1H-pyrazolo[3,4-d]pyrimidin-6-amine], for which the IC50 under setting [1] was less than 25 nM.
`C=CS(=O)(=O)c1ncc(Nc2ncc3cnn(CC4CCCCC4)c3n2)cn1` [Compound 21, 1-(cyclohexylmethyl)-N-(2-(vinylsulfonyl)pyrimidin-5-yl)-1H-pyrazolo[3,4-d]pyrimidin-6-amine]: the IC50 under setting [3] is 25 to 150 nM.
With `CS(=O)(=O)c1ccc(Nc2ncc3cnn(CC4CCCCC4)c3n2)cc1F` [Compound 80, 1-(cyclohexylmethyl)-N-(3-fluoro-4-(methylsulfonyl)phenyl)-1H-pyrazolo[3,4-d]pyrimidin-6-amine], the IC50 under setting [2] was more than 150 nM.
Regarding `CS(=O)(=O)c1ccc(Nc2ncc3cnn(C[C@H]4CC[C@@H](C(=O)O)CC4)c3n2)cc1` [Compound 16, (1s,4s)-4-((6-((4-(methylsulfonyl)phenyl)amino)-1H-pyrazolo[3,4-d]pyrimidin-1-yl)methyl)cyclohexane-1-carboxylic acid], the IC50 under setting [2] was more than 150 nM.
As to `C=CS(=O)(=O)c1ccc(Nc2ncc3cnn(CC4CCCCC4)c3n2)cc1` [Compound 8, 1-(cyclohexylmethyl)-N-(4-(vinylsulfonyl)phenyl)-1H-pyrazolo[3,4-d]pyrimidin-6-amine], under setting [3], the IC50 fell in the range of 25 to 150 nM.
